Conditions: for mass density: Fluid (supercritical or subcritical phases), Vibrating tube method; for vapor or sublimation pressure: Liquid

C=C(C)C [2-methylpropene]
Conditions	mass density [kg/m3]
273.23 K, 615 kPa	619.2
273.23 K, 9987 kPa	631.07
273.23 K, 15001 kPa	636.64
273.23 K, 20001 kPa	641.78
273.23 K, 25007 kPa	646.58
273.23 K, 29992 kPa	651.06
273.23 K, 34986 kPa	655.29
273.23 K, 40007 kPa	659.29
273.24 K, 5018 kPa	625.04
278.24 K, 625 kPa	613.32
278.24 K, 9983 kPa	625.79
278.24 K, 29985 kPa	646.57
278.25 K, 4992 kPa	619.43
278.25 K, 14997 kPa	631.6
278.25 K, 19994 kPa	636.96
278.25 K, 24995 kPa	641.93
278.25 K, 35001 kPa	650.96
278.25 K, 39983 kPa	655.07
283.26 K, 623 kPa	607.34
283.26 K, 4980 kPa	613.78
283.26 K, 10001 kPa	620.49
283.26 K, 15002 kPa	626.55
283.26 K, 19992 kPa	632.11
283.26 K, 24993 kPa	637.28
283.26 K, 29994 kPa	642.09
283.26 K, 34999 kPa	646.62
283.26 K, 39994 kPa	650.87
288.27 K, 622 kPa	601.26
288.27 K, 4986 kPa	608.09
288.27 K, 9999 kPa	615.12
288.27 K, 15002 kPa	621.46
288.27 K, 20000 kPa	627.26
288.27 K, 24990 kPa	632.61
288.27 K, 30003 kPa	637.6
288.27 K, 35005 kPa	642.28
288.27 K, 40002 kPa	646.66
293.28 K, 624 kPa	595.08
293.28 K, 4999 kPa	602.33
293.28 K, 9991 kPa	609.69
293.28 K, 14989 kPa	616.34
293.28 K, 19994 kPa	622.38
293.28 K, 24993 kPa	627.94
293.28 K, 30001 kPa	633.11
293.28 K, 35003 kPa	637.94
293.28 K, 39987 kPa	642.44
298.3 K, 624 kPa	588.78
298.3 K, 4988 kPa	596.46
298.3 K, 9992 kPa	604.23
298.3 K, 14991 kPa	611.17
298.3 K, 20004 kPa	617.49
298.3 K, 25009 kPa	623.26
298.3 K, 30005 kPa	628.61
298.3 K, 34998 kPa	633.59
298.3 K, 40003 kPa	638.26
303.3 K, 638 kPa	582.38
303.3 K, 14996 kPa	606.02
303.3 K, 19992 kPa	612.59
303.3 K, 24991 kPa	618.59
303.3 K, 34996 kPa	629.29
303.3 K, 39999 kPa	634.1
303.31 K, 4990 kPa	590.52
303.31 K, 9994 kPa	598.73
303.31 K, 29988 kPa	624.13
308.31 K, 706 kPa	575.94
308.32 K, 4988 kPa	584.48
308.32 K, 9989 kPa	593.14
308.32 K, 14992 kPa	600.77
308.32 K, 19998 kPa	607.63
308.32 K, 24997 kPa	613.87
308.32 K, 30005 kPa	619.62
308.32 K, 34988 kPa	624.91
308.32 K, 40003 kPa	629.89
313.2 K, 951 kPa	569.89
313.2 K, 4993 kPa	578.43
313.2 K, 9992 kPa	587.58
313.2 K, 14986 kPa	595.55
313.2 K, 19994 kPa	602.7
313.2 K, 24994 kPa	609.17
313.2 K, 29987 kPa	615.08
313.2 K, 34991 kPa	620.58
313.2 K, 40013 kPa	625.7
318.21 K, 1034 kPa	563.28
318.21 K, 4991 kPa	572.22
318.21 K, 9993 kPa	581.88
318.21 K, 15000 kPa	590.28
318.21 K, 20002 kPa	597.73
318.21 K, 24998 kPa	604.47
318.21 K, 29993 kPa	610.61
318.21 K, 34995 kPa	616.28
318.21 K, 39991 kPa	621.54
323.22 K, 1130 kPa	556.5
323.22 K, 5015 kPa	565.89
323.22 K, 10019 kPa	576.14
323.22 K, 15017 kPa	584.94
323.22 K, 20010 kPa	592.7
323.22 K, 25016 kPa	599.69
323.22 K, 30006 kPa	606.04
323.22 K, 34990 kPa	611.88
328.22 K, 1213 kPa	549.51
328.22 K, 4997 kPa	559.34
328.22 K, 10001 kPa	570.24
328.22 K, 14997 kPa	579.49
328.22 K, 19998 kPa	587.62
328.22 K, 24989 kPa	594.87
328.22 K, 29993 kPa	601.47
328.22 K, 35002 kPa	607.53
333.22 K, 1303 kPa	542.34
333.22 K, 4983 kPa	552.65
333.22 K, 9997 kPa	564.28
333.22 K, 15001 kPa	574.03
333.22 K, 19998 kPa	582.51
333.22 K, 25001 kPa	590.09
333.22 K, 30012 kPa	596.94
333.22 K, 34994 kPa	603.17
338.22 K, 1401 kPa	534.97
338.22 K, 4983 kPa	545.83
338.22 K, 9985 kPa	558.2
338.22 K, 14988 kPa	568.49
338.22 K, 20002 kPa	577.4
338.22 K, 24995 kPa	585.25
338.22 K, 30004 kPa	592.35
338.22 K, 34989 kPa	598.79
338.23 K, 39972 kPa	604.69
343.22 K, 1507 kPa	527.38
343.22 K, 4990 kPa	538.84
343.22 K, 14984 kPa	562.89
343.22 K, 19992 kPa	572.21
343.22 K, 24986 kPa	580.39
343.23 K, 10002 kPa	552.06
343.23 K, 29994 kPa	587.74
343.23 K, 35010 kPa	594.44
348.23 K, 1624 kPa	519.55
348.23 K, 4982 kPa	531.6
348.23 K, 9996 kPa	545.8
348.23 K, 15003 kPa	557.28
348.23 K, 19988 kPa	566.99
348.23 K, 24994 kPa	575.52
348.23 K, 29995 kPa	583.14
348.23 K, 34998 kPa	590.02
353.23 K, 1750 kPa	511.45
353.23 K, 4999 kPa	524.22
353.23 K, 9995 kPa	539.41
353.23 K, 15002 kPa	551.55
353.23 K, 19988 kPa	561.74
353.23 K, 24993 kPa	570.61
353.23 K, 29992 kPa	578.51
353.23 K, 35002 kPa	585.65
358.23 K, 1880 kPa	503.02
358.23 K, 4995 kPa	516.51
358.23 K, 9992 kPa	532.9
358.23 K, 14994 kPa	545.74
358.23 K, 19987 kPa	556.44
358.23 K, 25000 kPa	565.71
358.23 K, 29992 kPa	573.87
358.23 K, 34986 kPa	581.23
363.23 K, 2029 kPa	494.29
363.23 K, 4995 kPa	508.53
363.23 K, 9990 kPa	526.24
363.23 K, 14992 kPa	539.87
363.23 K, 19984 kPa	551.08
363.23 K, 25007 kPa	560.75
363.23 K, 29987 kPa	569.21
363.23 K, 34996 kPa	576.84
368.23 K, 2186 kPa	485.16
368.23 K, 4992 kPa	500.2
368.23 K, 9984 kPa	519.43
368.23 K, 14990 kPa	533.92
368.23 K, 29990 kPa	564.54
368.24 K, 19992 kPa	545.7
368.24 K, 25001 kPa	555.77
368.24 K, 35000 kPa	572.42
373.23 K, 2351 kPa	475.57
373.23 K, 29996 kPa	559.86
373.23 K, 34996 kPa	567.99
373.24 K, 4995 kPa	491.52
373.24 K, 9984 kPa	512.47
373.24 K, 14991 kPa	527.88
373.24 K, 19998 kPa	540.27
373.24 K, 25004 kPa	550.75
373.24 K, 39995 kPa	575.36
378.24 K, 2531 kPa	465.5
378.24 K, 4999 kPa	482.41
378.24 K, 9996 kPa	505.39
378.24 K, 14983 kPa	521.73
378.24 K, 19996 kPa	534.78
378.24 K, 25004 kPa	545.72
378.24 K, 29995 kPa	555.17
378.24 K, 34988 kPa	563.54
383.24 K, 2689 kPa	454.37
383.24 K, 4984 kPa	472.67
383.24 K, 9995 kPa	498.07
383.24 K, 14986 kPa	515.53
383.24 K, 20004 kPa	529.26
383.24 K, 25006 kPa	540.65
383.24 K, 29986 kPa	550.43
383.24 K, 34992 kPa	559.1
388.24 K, 2901 kPa	443.01
388.24 K, 4994 kPa	462.48
388.24 K, 9997 kPa	490.56

Conditions	vapor or sublimation pressure [kPa]
285.97 K	206.58
297.46 K	297.04
307.88 K	404.2
315.82 K	503.41
324.78 K	633
328.93 K	704.67
337.82 K	871.92
348.26 K	1100.8
357.33 K	1343.9
364.25 K	1545.1
371.52 K	1784.7
380.19 K	2094.5
386.12 K	2332.7

Reference: the NIST ThermoML archive (doi:10.1016/j.fluid.2004.09.013)
